Data on three compounds can be found in ChEMBL document CHEMBL1138520, “Molecular and conformational determinants of pituitary adenylate cyclase-activating polypeptide (PACAP) for activation of the PAC1 receptor” (J Med Chem, 2009).

The source made the active and inactive calls. The rule behind the calls is not given here. Where a SMILES comes first, the peptide text is derived from it. [ ]: non-standard residue; d: D form. ξ: configuration not given here. ξDisc = O=C(O)C1NCc2ccccc21

A word on the IC50: it is the concentration needed to halve the response being measured.

Experiment [1] concerns the target T1, Pituitary adenylate cyclase-activating polypeptide type I receptor (Homo sapiens, UniProt P41586). In words: Displacement of [125I]Ac-PACAP27 from human recombinant PAC1 receptor expressed in CHO cells by gamma- counter. Format: cell-based. (Loss of bound radioactivity is the signal in a displacement assay; it reports binding, not function.)
Target sequence in this assay (P41586 whole entry): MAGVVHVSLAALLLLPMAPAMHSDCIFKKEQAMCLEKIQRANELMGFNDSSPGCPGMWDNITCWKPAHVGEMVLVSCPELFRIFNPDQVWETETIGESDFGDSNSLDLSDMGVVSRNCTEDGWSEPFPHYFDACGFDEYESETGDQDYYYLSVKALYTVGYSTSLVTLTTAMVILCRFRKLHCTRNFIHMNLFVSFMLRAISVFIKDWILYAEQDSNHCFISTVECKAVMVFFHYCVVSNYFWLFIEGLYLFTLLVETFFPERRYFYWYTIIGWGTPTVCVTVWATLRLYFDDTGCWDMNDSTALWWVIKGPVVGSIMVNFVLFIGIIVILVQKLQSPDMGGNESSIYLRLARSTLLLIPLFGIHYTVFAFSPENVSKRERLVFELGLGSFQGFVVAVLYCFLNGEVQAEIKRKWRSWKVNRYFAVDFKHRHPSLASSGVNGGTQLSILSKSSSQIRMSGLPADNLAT
The target in experiment [2] is T1, Pituitary adenylate cyclase-activating polypeptide type I receptor. Put plainly: Agonist activity at human recombinant PAC1 receptor expressed in CHO cells assessed as PACAP38-induced calcium mobilization at 1 uM by FLIPR assay. Format: functional, cell-based. (In general: Calcium assays in cells follow changes in intracellular calcium, usually with a dye or a luminescent sensor.)
Target sequence in this assay (P41586 whole entry): as above

The target is the same in experiment [3]. In words: Agonist activity at human recombinant PAC1 receptor expressed in CHO cells assessed as PACAP38-induced calcium mobilization at 1 uM by FLIPR assay relative to PACAP38. Format: functional, cell-based.
Target sequence in this assay (P41586 21-468 limits assumed): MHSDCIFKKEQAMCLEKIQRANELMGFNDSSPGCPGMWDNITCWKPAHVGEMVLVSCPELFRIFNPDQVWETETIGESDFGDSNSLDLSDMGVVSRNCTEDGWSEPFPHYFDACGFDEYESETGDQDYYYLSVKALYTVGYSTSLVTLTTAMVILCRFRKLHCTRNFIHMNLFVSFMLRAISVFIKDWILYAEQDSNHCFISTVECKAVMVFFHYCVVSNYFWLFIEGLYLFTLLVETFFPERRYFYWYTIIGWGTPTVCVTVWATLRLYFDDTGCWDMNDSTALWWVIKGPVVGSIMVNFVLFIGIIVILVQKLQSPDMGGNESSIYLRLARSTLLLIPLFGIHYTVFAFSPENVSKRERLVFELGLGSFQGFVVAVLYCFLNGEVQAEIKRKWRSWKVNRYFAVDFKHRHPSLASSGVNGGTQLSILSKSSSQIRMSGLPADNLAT

In the case of `CC[C@H](C)[C@H](NC(=O)CNC(=O)[C@H](CC(=O)O)NC(=O)[C@H](CO)NC(=O)[C@@H](N)Cc1cnc[nH]1)C(=O)N1Cc2ccccc2C1C(=O)N[C@H](C(=O)N[C@@H](CC(=O)O)C(=O)N[C@@H](CO)C(=O)N[C@@H](Cc1ccc(O)cc1)C(=O)N[C@@H](CO)C(=O)N[C@@H](CCCNC(=N)N)C(=O)N[C@@H](Cc1ccc(O)cc1)C(=O)N[C@@H](CCCNC(=N)N)C(=O)N[C@@H](CCCCN)C(=O)N[C@@H](CCC(N)=O)C(=O)N[C@@H](CCSC)C(=O)N[C@@H](C)C(=O)N[C@H](C(=O)N[C@@H](CCCCN)C(=O)N[C@@H](CCCCN)C(=O)N[C@@H](Cc1ccc(O)cc1)C(=O)N[C@@H](CC(C)C)C(=O)N[C@@H](C)C(=O)N[C@@H](C)C(=O)N[C@H](C(=O)N[C@@H](CC(C)C)C(=O)NCC(=O)N[C@@H](CCCCN)C(=O)N[C@@H](CCCNC(=N)N)C(=O)N[C@@H](Cc1ccc(O)cc1)C(=O)N[C@@H](CCCCN)C(=O)N[C@@H](CCC(N)=O)C(=O)N[C@@H](CCCNC(=N)N)C(=O)N[C@H](C(=O)N[C@@H](CCCCN)C(=O)N[C@@H](CC(N)=O)C(=O)N[C@@H](CCCCN)C(N)=O)C(C)C)C(C)C)C(C)C)[C@@H](C)O` (some centres undefined) (H-HSDGI[ξDisc]TDSYSRYRKQMAVKKYLAAVLGKRYKQRVKNK-NH2), the IC50 in experiment [1] turned out to be 1750 nM. For the same compound, the EC50 entry in experiment [2] is recorded as “Not Active”. The Emax result in experiment [3] is “inactive”.

As to `CC[C@H](C)[C@H](NC(=O)CNC(=O)[C@H](CC(=O)O)NC(=O)[C@H](CO)NC(=O)[C@@H](N)Cc1cnc[nH]1)C(=O)N1CCc2ccccc2C1C(=O)N[C@H](C(=O)N[C@@H](CC(=O)O)C(=O)N[C@@H](CO)C(=O)N[C@@H](Cc1ccc(O)cc1)C(=O)N[C@@H](CO)C(=O)N[C@@H](CCCNC(=N)N)C(=O)N[C@@H](Cc1ccc(O)cc1)C(=O)N[C@@H](CCCNC(=N)N)C(=O)N[C@@H](CCCCN)C(=O)N[C@@H](CCC(N)=O)C(=O)N[C@@H](CCSC)C(=O)N[C@@H](C)C(=O)N[C@H](C(=O)N[C@@H](CCCCN)C(=O)N[C@@H](CCCCN)C(=O)N[C@@H](Cc1ccc(O)cc1)C(=O)N[C@@H](CC(C)C)C(=O)N[C@@H](C)C(=O)N[C@@H](C)C(=O)N[C@H](C(=O)N[C@@H](CC(C)C)C(N)=O)C(C)C)C(C)C)[C@@H](C)O` (some centres undefined), in experiment [1], the IC50 was 2590 nM. Further, the EC50 entry in experiment [2] is listed as “Not Active”. Besides, the Emax entry in experiment [3] was “inactive”.

For the compound `CC[C@H](C)[C@H](NC(=O)CNC(=O)[C@H](CC(=O)O)NC(=O)[C@H](CO)NC(=O)[C@@H](N)Cc1cnc[nH]1)C(=O)N(C)[C@@H](Cc1ccccc1)C(=O)N[C@H](C(=O)N[C@@H](CC(=O)O)C(=O)N[C@@H](CO)C(=O)N[C@@H](Cc1ccc(O)cc1)C(=O)N[C@@H](CO)C(=O)N[C@@H](CCCNC(=N)N)C(=O)N[C@@H](Cc1ccc(O)cc1)C(=O)N[C@@H](CCCNC(=N)N)C(=O)N[C@@H](CCCCN)C(=O)N[C@@H](CCC(N)=O)C(=O)N[C@@H](CCSC)C(=O)N[C@@H](C)C(=O)N[C@H](C(=O)N[C@@H](CCCCN)C(=O)N[C@@H](CCCCN)C(=O)N[C@@H](Cc1ccc(O)cc1)C(=O)N[C@@H](CC(C)C)C(=O)N[C@@H](C)C(=O)N[C@@H](C)C(=O)N[C@H](C(=O)N[C@@H](CC(C)C)C(=O)NCC(=O)N[C@@H](CCCCN)C(=O)N[C@@H](CCCNC(=N)N)C(=O)N[C@@H](Cc1ccc(O)cc1)C(=O)N[C@@H](CCCCN)C(=O)N[C@@H](CCC(N)=O)C(=O)N[C@@H](CCCNC(=N)N)C(=O)N[C@H](C(=O)N[C@@H](CCCCN)C(=O)N[C@@H](CC(N)=O)C(=O)N[C@@H](CCCCN)C(N)=O)C(C)C)C(C)C)C(C)C)[C@@H](C)O`, the IC50 in experiment [1] stood at 1280 nM. The EC50 entry in experiment [2] is on record as “Not Active”. Further, in experiment [3], the Emax entry is “inactive”.
